In paper PMC8607231, “Generation of KS-133 as a Novel Bicyclic Peptide with a Potent and Selective VIPR2 Antagonist Activity that Counteracts Cognitive Decline in a Mouse Model of Psychiatric Disorders” (Frontiers in Pharmacology, 2021) one finds IC50 data, which are given here for one compound.

The test deals with T1, human PAC1 (Homo sapiens, UniProt P41586).
T1 construct: host or cells: CHO-K1
T1 sequence (P41586 21-468): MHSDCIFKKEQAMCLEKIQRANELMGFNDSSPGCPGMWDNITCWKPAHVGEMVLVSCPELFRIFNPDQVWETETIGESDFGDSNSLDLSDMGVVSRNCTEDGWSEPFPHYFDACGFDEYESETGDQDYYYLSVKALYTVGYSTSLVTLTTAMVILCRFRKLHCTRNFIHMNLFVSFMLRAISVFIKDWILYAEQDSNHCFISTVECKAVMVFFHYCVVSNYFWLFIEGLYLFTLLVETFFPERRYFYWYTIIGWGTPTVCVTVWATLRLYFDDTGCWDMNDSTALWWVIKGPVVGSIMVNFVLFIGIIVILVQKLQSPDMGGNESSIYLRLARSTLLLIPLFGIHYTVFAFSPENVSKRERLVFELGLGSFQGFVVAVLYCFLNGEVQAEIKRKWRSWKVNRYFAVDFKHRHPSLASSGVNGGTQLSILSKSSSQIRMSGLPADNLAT
As to the kind of experiment: Calcium influx assay, antagonist activity against PACAP-PAC1 signaling. The test is classed as cell-based. The note with it: ligand PACAP (35 nM) at EC80; CHO-K1 cells; n = 4 wells, ± S.E.M; read-out: Ca influx assay [IC50 (nM)] PAC1. As for the experimental part:
Evaluation of antagonist activities of peptides against VIP-VIPR1, VIP-VIPR2, and PACAP-PAC1 signaling pathways and agonistic activity of KS-133 at VIPR2 was carried out by Eurofins DiscoverX (Fremont, CA, United States). Intracellular calcium mobilization was monitored using a calcium-sensitive dye loaded in CHO-K1 cells expressing human VIPR1 (ITEM 86-0030P-2243AN), VIPR2 (ITEM 86-0030P-2244AN), and PAC1 (ITEM 86-0030P-2066AN). The cells were preincubated with antagonistic peptides for 30 min at room temperature in the dark. After addition of the ligand at EC80, calcium mobilization was immediately monitored by FLIPR Tetra for 2 min. Cyclic AMP production in CHO-K1 cells expressing human VIPR2 was evaluated using HitHunter® cAMP assays (antagonist mode: ITEM 86-0007P-2362AN; agonist mode: ITEM 86-0007P-2362AG). The cells were preincubated with antagonistic peptides for 30 min at room temperature. After addition of the ligand at EC80, cells were further incubated for 30 min at room temperature. Cells were lysed and the cAMP content of the cell lysate was determined by the β-galactosidase-based enzyme fragment complementation assay ([Eglen, 2002]). IC50 values were estimated by the following equation: IC50 = 10^[Log(A/B) × (50–D)/(C–D) + Log(B)], where A is the concentration at >50% inhibition, B is the concentration at <50% inhibition, C is the inhibition rate at concertation A, and D is the inhibition rate at concertation B.
First, the antagonistic activities of parental VIpep-3, KS-132, KS-133 (monocyclic) (no bridging between Lys^7 and Asp^11), and KS-133 against human VIPR1, VIPR2, and PAC1 were evaluated by a calcium influx assay. After antagonistic peptide treatment for 30 min, ligand at a concentration of EC80 was added to the cells and then calcium signaling was measured.
FIGURE 3 Antagonistic/agonistic activities of peptides in the calcium influx and cAMP assays. For evaluation of the antagonistic activity, the cells were preincubated with antagonistic peptides for 30 min. In the calcium influx assay, after addition of ligand at EC80, calcium mobilization was monitored immediately (see details in the Methods section) (n = 4 wells for each treatment). In the cAMP assay, after a 30 min incubation with the ligand at EC80, cAMP production in cells was measured (see details in the Methods section) (n = 4 wells for each treatment).

Where a SMILES comes first, the peptide text is derived from it. Bridges are numbered along the chain shown (N, C = ends).

One may read the IC50 as the point on the concentration scale where inhibition reaches its midpoint. With `CC[C@H](C)[C@H](NC(=O)[C@H](CC(C)C)NC(=O)[C@@H]1CC(=O)NCCCC[C@@H]2NC(=O)[C@@H]3CCCN3C(=O)[C@H](CC(C)C)NC(=O)[C@H](Cc3ccc(O)cc3)NC(=O)[C@@H]3CCCN3C(=O)[C@@H]3CCCN3C(=O)[C@@H](NC(C)=O)CSSC[C@H](NC(=O)[C@H](CC(C)C)NC(=O)[C@H](Cc3ccc(O)cc3)NC2=O)C(=O)N1)C(N)=O` [KS-133, Ac-c[Cys-Pro-Pro-Tyr-Leu-Pro-c(Lys-Tyr-Leu-Cys]-Asp)-Leu-Ile-NH2] (Ac-CPPYLPKYLCDLI-NH2; disulfide 1-10; lactam 7-11), the IC50 was more than 5000 nM.
